# Reference: US20190233884A1 (University of Southern California, priority 2016, published 2019)
# Tested on: patients with refractory metastatic colorectal cancer (mCRC)
# Assay: TAS-102-related toxicity (neutropenia, leukopenia, anemia, anorexia, nausea, diarrhea; CTCAE grade) in training/evaluation and testing/validation cohorts, association with SNPs
# Assay type: in vivo, human
# Conditions: for frequency of Gr3≤ neutropenia: evaluation cohort; for incidence of Gr3≤ neutropenia: validation cohort
# Description: Such effects include but are not limited to febrile neutropenia, leukopenia, stomatitis, neutropenia, hand-foot syndrome, cardiac ischemia, thrombocytopenia, increase in alanine aminotransferase level, increase in aspartate aminotransferase level, increase in total bilirubin, increase in alkaline phosphatase level, increase in creatinine level, anemia, anorexia, nausea, vomiting, decreased appetite, fatigue, abdominal pain, fever, asthenia, and diarrhea. […] “Subchronic” toxicity is the ability of a drug substance to cause harmful or adverse effects for […] but less than the lifetime of the exposed organism. “Chronic” toxicity is the ability of a drug substance or combination therapy to cause harmful effects over an extended period, usually upon repeated or continuous exposure, sometimes lasting for the entire life of the exposed organism. Adverse events are classified and graded by severity. Grade 1 adverse events: mild; asymptomatic or mild symptoms; clinical or diagnostic observations only; intervention not indicated. Grade 2 adverse events: moderate; minimal, local or noninvasive intervention indicated; limiting age-appropriate instrumental activities of daily living (ADL). Grade 3 adverse events: severe or medically significant but not immediately life-threatening; hospitalization or prolongation of hospitalization indicated; disabling; limiting self care activities of daily living. Grade 4 adverse events: life-threatening consequences; urgent intervention indicated. Grade 5 adverse event: death related to AE (Department of Health and Human Services, National Institutes of Health, National Cancer Institute. Common terminology criteria for adverse events (CTCAE) v4.03. 2010).
# The primary endpoint in this study was progression-free survival (PFS), and the secondary endpoints were overall survival (OS) and disease control rate (DCR). PFS was calculated from the date of starting treatment to the first observation of disease progression or death from any cause. If a patient had no disease progression or death, PFS was censored at the date of last follow up. OS was calculated from the date of starting treatment until the date of death from any cause or the date of the last follow-up, at which point OS was censored. The disease control rate (DCR) was defined as the proportion of patients who achieved a stable disease (SD) or […] according to RECISTv1.1. Chi-square test was used to examine the difference in baseline patient characteristics among the three cohorts. Allelic distribution of all SNPs by ethnicity for deviation from Hardy-Weinberg equilibrium and the allelic frequencies of SNPs were tested using the Chi-square tests with one degree of freedom. The associations between candidate SNPs and disease control, and toxicities were examined using contingency tables and Fisher's exact test. The associations of SNPs with PFS and OS were analysed using Kaplan-Meier curves and the log-rank test. Because the true mode of inheritance of candidate SNPs was not established yet, a codominant or dominant genetic model if appropriate was considered.
# All patients underwent the treatment in salvage-line setting. […] In all patients, adverse events were graded according to the Common Terminology Criteria for Adverse Events, version 4.0.
# The primary endpoint in this study was progression-free survival (PFS), and the secondary endpoints were overall survival (OS) and disease control rate (DCR). […] Data of patients without disease progression or death were censored at the date of last follow up. OS was calculated from the date of starting treatment until the date of death from any cause. In patients who were lost to follow-up, data were censored at the date of last follow up. The disease control rate (DCR) was defined as the proportion of patients who achieved a stable disease (SD) or […] according to RECIST v1.1.
substance,measurement,setting,value
Trifluridine/tipiracil [TAS-102],frequency of Gr3≤ neutropenia,ATM rs609429 C/C (n=4/14),29%
same,frequency of Gr3≤ neutropenia,ATM rs609429 any G allele (n=16/38),42%
same,incidence of grade 2≤ neutropenia,training cohort,61.5%
same,incidence of grade 3≤ neutropenia,training cohort,38.5%
same,frequency of Gr2< neutropenia,"training cohort, hENT1 rs760370 A/A (n=12/27)",44%
same,frequency of Gr2< neutropenia,"training cohort, hENT1 rs760370 any G allele (n=20/25)",80%
same,treatment delay caused by neutropenia,"training cohort, share of treatment delays (22/24)",91.8%
same,incidence of Gr3≤ neutropenia,ATM rs609429 C/C (n=13/51),26%
same,incidence of Gr3≤ neutropenia,ATM rs609429 any G allele (n=34/78),44%
